Test in all cases: MIC against Haemophilus strains
Common to all, as to assay type: cell-based

Experiment [1] relates to H. influenzae 35056.
The subject of experiment [2] is H. influenzae 49766.
Experiment [3] relates to H. influenzae 1381.
Experiment [4] relates to H. influenzae 451.
The test system of experiment [5] is H. influenzae 1745.
The test system of experiment [6] is H. influenzae P318.

Values after ≈ are worked out from the molar mass of the structure shown. A value given as a limit tells only on which side of the number the result lay.

With `O=C(NC[C@H]1CN(c2ccc(N3CCN(c4ccc([N+](=O)[O-])s4)CC3)c(F)c2)C(=O)O1)C(Cl)Cl` [compound 9, (S)—N-[[3-[-3-Fluoro-4-[N-1-(5-nitro-2-thienyl)-piperazinyl]phenyl] -2-oxo-5-oxazolidinyl]methyl]dichloroacetamide], the MIC in experiment [1] (s. No. 1, H. influenzae 35056) was over 16 µg/mL; in experiment [2] (s. No. 6, H. influenzae 49766), over 16 µg/mL; in experiment [3] (s. No. 7, H. influenzae 1381), over 16 µg/mL; in experiment [4] (s. No. 8, H. influenzae 451), over 16 µg/mL; in experiment [5] (s. No. 9, H. influenzae 1745), over 16 µg/mL; in experiment [6] (s. No. 10, H. influenzae P318) it was over 16 µg/mL.
As for `O=C(NC[C@H]1CN(c2ccc(N3CCN(c4ccc([N+](=O)[O-])s4)CC3)c(F)c2)C(=O)O1)C(F)F` [Compound No. 8, (S)—N-[[3-[3-Fluoro-4-[4-(5-nitro-2-thienyl)-1-piperazinyl]phenyl]-2-oxo-5-oxazolidinyl]methyl]difluoroacetamide], the MIC is over 16 µg/mL in experiment [1] (Haemophilus influenzae, 35056); over 16 µg/mL in experiment [2] (Haemophilus influenzae, 49766); over 16 µg/mL in experiment [3] (Haemophilus influenzae, 1381); over 16 µg/mL in experiment [4] (Haemophilus influenzae, 451); 16 µg/mL (≈ 32 µM) in experiment [5] (Haemophilus influenzae, 1745); over 16 µg/mL in experiment [6] (Haemophilus influenzae, P318).
Consider `CC(=O)NC[C@H]1CN(c2ccc(N3CCN(c4cc(C(OC(C)=O)OC(C)=O)sc4[N+](=O)[O-])CC3)c(F)c2)C(=O)O1` [Compound No. 5, (S)—N-[[3-[3-Fluoro-4-[4-{3-thienyl(2-nitro)-5-acetyloxy}methylacetate]-1-piperazinyl]phenyl]-2-oxo-5-oxazolidinyl]acetamide], for which the MIC in experiment [1] (s. No. 1, H. influenzae 35056) was over 16 µg/mL; in experiment [2] (s. No. 6, H. influenzae 49766) it was over 16 µg/mL; in experiment [3] (s. No. 7, H. influenzae 1381), over 16 µg/mL; in experiment [4] (s. No. 8, H. influenzae 451), over 16 µg/mL; in experiment [5] (s. No. 9, H. influenzae 1745) it was 16 µg/mL (≈ 27 µM); in experiment [6] (s. No. 10, H. influenzae P318), over 16 µg/mL.
With `CC(=O)NC[C@H]1CN(c2ccc(N3CCN(c4ccc([N+](=O)[O-])s4)CC3)cc2)C(=O)O1` [Compound No. 6, (S)—N-[[3-[4-[N-1-(5-nitro-2-thienyl)piperazinyl]-phenyl]-2-oxo-5-oxazolidinyl]-methyl]-acetamide], the MIC was 16 µg/mL (≈ 35.9 µM) in experiment [1] (s. No. 1, H. influenzae 35056); 16 µg/mL (≈ 35.9 µM) in experiment [2] (s. No. 6, H. influenzae 49766); 16 µg/mL (≈ 35.9 µM) in experiment [3] (s. No. 7, H. influenzae 1381); 16 µg/mL (≈ 35.9 µM) in experiment [4] (s. No. 8, H. influenzae 451); 16 µg/mL (≈ 35.9 µM) in experiment [5] (s. No. 9, H. influenzae 1745); 16 µg/mL (≈ 35.9 µM) in experiment [6] (s. No. 10, H. influenzae P318).
Turning to `C[C@H](Cl)C(=O)NCC1CN(c2ccc(N3CCN(c4ccc([N+](=O)[O-])s4)CC3)c(F)c2)C(=O)O1` (stereo partly drawn) [Compound No. 7, (S)—N-[[3-[3-Fluoro-4-[N-1-{4-(5-nitro-2-thienyl)piperazinyl}]-phenyl]-2-oxo-5-oxazolidinyl]-methyl]-2-chloro-propionamide], the MIC was over 16 µg/mL in experiment [1] (s. No. 1, H. influenzae 35056); over 16 µg/mL in experiment [2] (s. No. 6, H. influenzae 49766); over 16 µg/mL in experiment [3] (s. No. 7, H. influenzae 1381); over 16 µg/mL in experiment [4] (s. No. 8, H. influenzae 451); over 16 µg/mL in experiment [5] (s. No. 9, H. influenzae 1745); over 16 µg/mL in experiment [6] (s. No. 10, H. influenzae P318).
On to “(S)—N-[[3-[-3-Fluoro-4-[(5-nitro-2-thienyl)-3-methyl-1-piperazinyl]phenyl]-2-oxo-5-oxazolidinyl]methyl]acetamide [Compound No. 10]”, for which the MIC was over 16 µg/mL in experiment [1] (s. No. 1, H. influenzae 35056); over 16 µg/mL in experiment [2] (s. No. 6, H. influenzae 49766); over 16 µg/mL in experiment [3] (s. No. 7, H. influenzae 1381); over 16 µg/mL in experiment [4] (s. No. 8, H. influenzae 451); over 16 µg/mL in experiment [5] (s. No. 9, H. influenzae 1745); over 16 µg/mL in experiment [6] (s. No. 10, H. influenzae P318).
